Reference: patent US20080199847A1, “Method for Predicting the Metabolism of Drug in Human Liver and Liver Function” (Daiichi Pure Chemicals Co., Ltd., priority 2004, published 2008)
“And” between values parts separate entries of the source, which are not always exact repeats. Equal values may be shown once.

Assay: Radioactivity levels of tissue and plasma samples two hours after administration
Settings: 5 mg/kg iv
Experimental: Chimeric mice from PhoenixBio Co., Ltd. were employed.
The pH of the solution was adjusted to 7.0 with a 0.1% aqueous citric acid solution, and the concentration was adjusted to 1 mg/mL with distilled water for injection. The liquid was bolus-administered at 5 mL/kg to the caudal vein of the mice (5 mg/5 mL/kg).
Livers and kidneys were taken from other mice two hours after administration, following sacrificing through exsanguination. Blood plasma was collected by sampling blood through the orbital venousplexus and centrifuging it. Bile was collected from the chimeric mice and the control mice through bile duct cannulation until 72 hours after administration.
Radioactivity of each sample was determined by use of a liquid scintillator (Hionic-flow, product of Perkin-Elmer) with Tri-Carb 2500 (Perkin-Elmer) as a liquid scintillation counter. The measurement was performed for two minutes.
In analysis of blood plasma, bile, and urine, the sample (10 μL) was collected in a 20-mL glass vial, added Hionic-flow (10 mL), and the mixture was analyzed.
In analysis of tissue samples (liver and kidney), an amount 3-fold (by weight) of acetate buffer (0.1M, pH3.0) was added to each sample, and the mixture was homogenized with a polytron-homogenizer. An aliquot (50 μL) of the homogenate was solubilized with 2 mL of Soluene 350 (Perkin-Elmer), added Hionic-flow (10 mL), and the mixture was analyzed.

CC(C(=O)O)c1cccc(C(=O)c2ccccc2)c1 (centres unmarked) [ketoprofen, Ketoprofen]
Concentration (radioactivity level), kidney (chimeric mice): 5.03±1.25 μg eq./mL and 5.03 μg eq./mL
Concentration (radioactivity level), kidney (control mice): 4.70±0.61 μg eq./mL and 4.70 μg eq./mL
